Experimental data as given in PubChem BioAssay AID268 (DTP/NCI, 2004).
Several values for one entry are separate records, joined by “and”; a condition that tells them apart may be missing. Equal values may be shown once.

Tested on: CD2F1 mice, P1798 lymphosarcoma sc, tumor weight T/C
Test: NCI In Vivo Anticancer Drug Screen. Data for tumor model P1798 Lymphosarcoma (subcutaneous) in CD2F1 (CDF1) mice
Conditions: endpoint: mean tumor weight, higher = larger tumour
Method: The antitumor activity of compounds was measured in mice bearing transplantable tumors. Survival or tumor size were measured and the results are expressed as the measurement made in the treated group (T) divided by the measurement made in the vehicle treated control group (C). The tumor model used in this assay is P1798 Lymphosarcoma (subcutaneous) in CD2F1 (CDF1) mice

[1] = dose: 0.25 mg/kg/injection, schedule: Q01DX010 (ip), vehicle: saline
[2] = dose: 12.5 mg/kg/injection, schedule: Q01DX010 (ip), vehicle: saline
[3] = dose: 25.0 mg/kg/injection, schedule: Q01DX010 (ip), vehicle: saline
[4] = dose: 50.0 mg/kg/injection, schedule: Q01DX010 (ip), vehicle: saline
[5] = dose: 25.0 mg/kg/injection, schedule: Q01DX010 (sc), vehicle: steriod suspending solution
[6] = dose: 12.5 mg/kg/injection, schedule: Q01DX010 (sc), vehicle: steriod suspending solution
[7] = dose: 50.0 mg/kg/injection, schedule: Q01DX010 (sc), vehicle: steriod suspending solution
[8] = dose: 100.0 mg/kg/injection, schedule: Q01DX010 (sc), vehicle: steriod suspending solution
[9] = dose: 100.0 mg/kg/injection, schedule: Q01DX010 (ip), vehicle: saline
[10] = dose: 10.0 mg/kg/injection, schedule: Q01DX010 (ip), vehicle: saline
[11] = dose: 20.0 mg/kg/injection, schedule: Q01DX010 (ip), vehicle: saline
[12] = dose: 12.5 mg/kg/injection, schedule: Q01DX005 (sc), vehicle: steriod suspending solution
[13] = dose: 25.0 mg/kg/injection, schedule: Q01DX005 (sc), vehicle: steriod suspending solution
[14] = dose: 25.0 mg/kg/injection, schedule: Q02DX010 (sc), vehicle: steriod suspending solution
[15] = dose: 25.0 mg/kg/injection, schedule: Q03DX004 (sc), vehicle: steriod suspending solution
[16] = dose: 50.0 mg/kg/injection, schedule: Q01DX005 (sc), vehicle: steriod suspending solution
[17] = dose: 50.0 mg/kg/injection, schedule: Q02DX010 (sc), vehicle: steriod suspending solution
[18] = dose: 50.0 mg/kg/injection, schedule: Q03DX004 (sc), vehicle: steriod suspending solution
[19] = dose: 200.0 mg/kg/injection, schedule: Q01DX010 (sc), vehicle: steriod suspending solution
[20] = dose: 400.0 mg/kg/injection, schedule: Q01DX010 (sc), vehicle: steriod suspending solution
[21] = dose: 1.25 mg/kg/injection, schedule: Q01DX010 (ip), vehicle: saline
[22] = dose: 2.5 mg/kg/injection, schedule: Q01DX010 (ip), vehicle: saline

CS(=O)(=O)OCCCl
T/C (dose: 9.4 mg/kg/injection, schedule: Q01DX010 (ip), vehicle: saline): 155 % of control
T/C (dose: 18.8 mg/kg/injection, schedule: Q01DX010 (ip), vehicle: saline): 171 % of control
T/C (dose: 37.5 mg/kg/injection, schedule: Q01DX010 (ip), vehicle: saline): 186 % of control
T/C (dose: 75.0 mg/kg/injection, schedule: Q01DX010 (ip), vehicle: saline): 86 % of control

CC(=O)OC(C)(C)/C=C/C(=O)[C@](C)(O)[C@H]1[C@H](O)C[C@@]2(C)[C@@H]3CC=C4[C@@H](C[C@H](O)C(=O)C4(C)C)[C@]3(CO)C(=O)C[C@]12C
T/C (dose: 0.16 mg/kg/injection, schedule: Q01DX010 (ip), vehicle: saline): 108 % of control
T/C [1]: 110 % of control
T/C (dose: 0.38 mg/kg/injection, schedule: Q01DX010 (ip), vehicle: saline): 104 % of control

COc1ccc2c(c1)CC[C@@H]1[C@@H]2CC[C@@]2(C)[C@H]1CC[C@@]2(O)C(F)=C(F)F
T/C (dose: 111.0 mg/kg/injection, schedule: Q01DX010 (sc), vehicle: steriod suspending solution): 12 % of control
T/C (dose: 167.0 mg/kg/injection, schedule: Q01DX010 (sc), vehicle: steriod suspending solution): 9 % of control
T/C (dose: 250.0 mg/kg/injection, schedule: Q01DX010 (sc), vehicle: steriod suspending solution): 10 % of control
T/C (dose: 375.0 mg/kg/injection, schedule: Q01DX010 (sc), vehicle: steriod suspending solution): 8 % of control

NCCCCCCNCCCCCCN
T/C (dose: 6.25 mg/kg/injection, schedule: Q01DX010 (ip), vehicle: saline): 90 % of control
T/C [2]: 89 % of control
T/C [3]: 100 % of control and 78 % of control
T/C [4]: 50 % of control and 70 % of control

Nc1ncnc2[nH]ncc12
T/C (dose: 1.5 mg/kg/injection, schedule: Q01DX010 (ip), vehicle: saline): 84 % of control and 88 % of control
T/C (dose: 3.0 mg/kg/injection, schedule: Q01DX010 (ip), vehicle: saline): 73 % of control and 88 % of control
T/C (dose: 12.0 mg/kg/injection, schedule: Q01DX010 (ip), vehicle: saline): 43 % of control

C1CN1c1nc(N2CC2)nc(N2CC2)n1
T/C (dose: 0.06 mg/kg/injection, schedule: Q01DX010 (ip), vehicle: saline): 114 % of control
T/C (dose: 0.5 mg/kg/injection, schedule: Q01DX010 (ip), vehicle: saline): 29 % of control and 37 % of control

C#C[C@]1(O)CC[C@H]2[C@@H]3CCc4cc(O)ccc4[C@H]3CC[C@@]21C
T/C [5]: 71 % of control and 85 % of control

C[C@]12CCC(=O)C=C1CC[C@@H]1[C@@H]2CC[C@@]2(C)[C@H]1CC[C@]2(C)O
T/C [6]: 91 % of control
T/C [5]: 61 % of control
T/C [7]: 90 % of control
T/C [8]: 97 % of control

NCCCCC(N)C(=O)NCCCCCCNC(=O)CCCCC(=O)NCCCCCCNC(=O)C(N)CCCCN (stereo not given)
T/C [2]: 101 % of control
T/C [3]: 90 % of control
T/C [4]: 94 % of control
T/C [9]: 110 % of control

C[C@]12CC[C@H](OC3OC(CO)C(O)C(O)C3O)C[C@H]1CC[C@@H]1[C@@H]2CC[C@]2(C)[C@@H](C3=CCOC3=O)CC[C@]12O (stereo not given in full)
T/C (dose: 0.13 mg/kg/injection, schedule: Q01DX010 (ip), vehicle: saline): 71 % of control
T/C [1]: 96 % of control

Nc1ncnc2c1ncn2C1OC(COCc2ccccc2)C(OCc2ccccc2)C1OCc1ccccc1 (stereo not given)
T/C [10]: 107 % of control and 115 % of control
T/C [11]: 92 % of control and 109 % of control
T/C (dose: 40.0 mg/kg/injection, schedule: Q01DX010 (ip), vehicle: saline): 114 % of control and 89 % of control
T/C (dose: 80.0 mg/kg/injection, schedule: Q01DX010 (ip), vehicle: saline): 93 % of control and 104 % of control

Cc1cc(N(CCCl)CCCl)ccc1N=Nc1ccccc1C(=O)O
T/C (dose: 5.0 mg/kg/injection, schedule: Q01DX010 (ip), vehicle: saline): 72 % of control and 79 % of control
T/C [10]: 16 % of control and 23 % of control
T/C [11]: 10 % of control

O=C(NCCCCCCNC(=O)OCc1ccccc1)OCc1ccccc1
T/C [4]: 102 % of control
T/C [9]: 119 % of control
T/C (dose: 200.0 mg/kg/injection, schedule: Q01DX010 (ip), vehicle: saline): 94 % of control
T/C (dose: 400.0 mg/kg/injection, schedule: Q01DX010 (ip), vehicle: saline): 123 % of control

C=C(C)C(=O)O[C@H]1CC2=C[C@@H](C[C@@]3(C)O[C@@H]3[C@H]3OC(=O)C(=C)[C@@H]31)OC2=O
T/C (dose: 2.5 mg/kg/injection, schedule: Q01DX011 (sc), vehicle: saline): 94 % of control
T/C (dose: 5.0 mg/kg/injection, schedule: Q01DX011 (sc), vehicle: saline): 73 % of control
T/C (dose: 10.0 mg/kg/injection, schedule: Q01DX011 (sc), vehicle: saline): 116 % of control

C[C@]12CC[C@@H]3c4ccc(O)cc4CC[C@H]3[C@@H]1C[C@H](O)C2
T/C (dose: 6.25 mg/kg/injection, schedule: Q01DX010 (sc), vehicle: steriod suspending solution): 102 % of control
T/C [6]: 95 % of control and 109 % of control
T/C [7]: 111 % of control and 112 % of control

C[C@]12C=CC(=O)C=C1CC[C@@H]1[C@@H]2[C@@H](O)C[C@@]2(C)[C@H]1CC[C@]2(O)C(=O)CO
T/C [12]: 41 % of control
T/C [6]: 42 % of control and 46 % of control
T/C [13]: 48 % of control
T/C [14]: 100 % of control
T/C [15]: 87 % of control
T/C [16]: 22 % of control
T/C [17]: 100 % of control
T/C [18]: 92 % of control
T/C (dose: 100.0 mg/kg/injection, schedule: Q01DX005 (sc), vehicle: steriod suspending solution): 20 % of control
T/C (dose: 100.0 mg/kg/injection, schedule: Q02DX010 (sc), vehicle: steriod suspending solution): 96 % of control
T/C (dose: 100.0 mg/kg/injection, schedule: Q03DX004 (sc), vehicle: steriod suspending solution): 100 % of control

C[C@]12CC[C@@H]3c4ccccc4CC[C@H]3[C@@H]1CC[C@@H]2O
T/C [8]: 94 % of control
T/C [19]: 74 % of control
T/C [20]: 33 % of control
T/C (dose: 800.0 mg/kg/injection, schedule: Q01DX010 (sc), vehicle: steriod suspending solution): 7 % of control

CC[n+]1c(-c2ccccc2)c2cc(N)ccc2c2ccc(N)cc21
T/C [21]: 108 % of control
T/C [22]: 97 % of control
T/C [10]: 4 % of control and 10 % of control

CC(=O)OCC(=O)[C@@]1(O)CC[C@H]2[C@@H]3C[C@H](C)C4=CC(=O)C=C[C@]4(C)[C@H]3[C@@H](O)C[C@@]21C
T/C [7]: 5 % of control

CC(=O)Nc1ccc(/C=N/Nc2ccc([N+](=O)[O-])cn2)cc1
T/C (dose: 62.5 mg/kg/injection, schedule: Q01DX010 (ip), vehicle: saline): 66 % of control
T/C (dose: 125.0 mg/kg/injection, schedule: Q01DX010 (ip), vehicle: saline): 75 % of control
T/C (dose: 250.0 mg/kg/injection, schedule: Q01DX010 (ip), vehicle: saline): 16 % of control

CC(=O)[C@H]1CC[C@H]2[C@@H]3C[C@H](C)C4=CC(=O)CC[C@]4(C)[C@@]3(F)[C@@H](O)C[C@]12C
T/C [7]: 11 % of control
T/C [8]: 4 % of control
T/C [19]: 2 % of control
T/C [20]: 2 % of control

C[C@]12C=CC(=O)C=C1CC[C@H]1[C@@H]3C[C@@H](O)[C@](O)(C(=O)CO)[C@@]3(C)C[C@H](O)[C@@]12F
T/C [12]: 16 % of control
T/C (dose: 12.5 mg/kg/injection, schedule: Q03DX004 (sc), vehicle: steriod suspending solution): 26 % of control
T/C [13]: 2 % of control
T/C [14]: 115 % of control
T/C [15]: 6 % of control
T/C [16]: 2 % of control
T/C [17]: 122 % of control
T/C [18]: 5 % of control

COC1C(OC(=O)/C=C/C=C/C=C/C=C/C(=O)O)CCC2(CO2)C1C1(C)OC1CC=C(C)C (stereo not given)
T/C [3]: 56 % of control
T/C [4]: 46 % of control
T/C [9]: 28 % of control

Nc1nc(=S)c2[nH]cnc2[nH]1
T/C (dose: 0.63 mg/kg/injection, schedule: Q01DX010 (ip), vehicle: saline): 74 % of control
T/C [21]: 51 % of control and 72 % of control
T/C [22]: 44 % of control

CS(=O)(=O)OCCN(CCOS(C)(=O)=O)c1ccc(N=O)cc1
T/C [1]: 92 % of control
T/C (dose: 1.0 mg/kg/injection, schedule: Q01DX010 (ip), vehicle: saline): 69 % of control
